Measured values reported in patent publication US7064128B2, “Preferentially substituted calcium channel blockers” (NeuroMed Technologies, Inc., priority 1998, dated 2006).
Like-named read-outs stand apart in the source and are kept apart here.

Experiments:
Type in all cases: cell-based
[1] = biological target: T1, N-type calcium channels (α1B+α2δ+β1b cDNA subunits) (Rattus norvegicus, UniProt Q02294); test: Whole cell patch clamp, tonic and frequency dependent block, N-type channels in HEK 293 (Example 5); conditions: for % Block (100 nM) 0.03 Hz: 0.03 Hz (tonic block); for % Block (100 nM) 0.2 Hz: 0.2 Hz (frequency dependent block)
T1 construct: expressed in transfected cells
T1 sequence (Q02294 whole entry): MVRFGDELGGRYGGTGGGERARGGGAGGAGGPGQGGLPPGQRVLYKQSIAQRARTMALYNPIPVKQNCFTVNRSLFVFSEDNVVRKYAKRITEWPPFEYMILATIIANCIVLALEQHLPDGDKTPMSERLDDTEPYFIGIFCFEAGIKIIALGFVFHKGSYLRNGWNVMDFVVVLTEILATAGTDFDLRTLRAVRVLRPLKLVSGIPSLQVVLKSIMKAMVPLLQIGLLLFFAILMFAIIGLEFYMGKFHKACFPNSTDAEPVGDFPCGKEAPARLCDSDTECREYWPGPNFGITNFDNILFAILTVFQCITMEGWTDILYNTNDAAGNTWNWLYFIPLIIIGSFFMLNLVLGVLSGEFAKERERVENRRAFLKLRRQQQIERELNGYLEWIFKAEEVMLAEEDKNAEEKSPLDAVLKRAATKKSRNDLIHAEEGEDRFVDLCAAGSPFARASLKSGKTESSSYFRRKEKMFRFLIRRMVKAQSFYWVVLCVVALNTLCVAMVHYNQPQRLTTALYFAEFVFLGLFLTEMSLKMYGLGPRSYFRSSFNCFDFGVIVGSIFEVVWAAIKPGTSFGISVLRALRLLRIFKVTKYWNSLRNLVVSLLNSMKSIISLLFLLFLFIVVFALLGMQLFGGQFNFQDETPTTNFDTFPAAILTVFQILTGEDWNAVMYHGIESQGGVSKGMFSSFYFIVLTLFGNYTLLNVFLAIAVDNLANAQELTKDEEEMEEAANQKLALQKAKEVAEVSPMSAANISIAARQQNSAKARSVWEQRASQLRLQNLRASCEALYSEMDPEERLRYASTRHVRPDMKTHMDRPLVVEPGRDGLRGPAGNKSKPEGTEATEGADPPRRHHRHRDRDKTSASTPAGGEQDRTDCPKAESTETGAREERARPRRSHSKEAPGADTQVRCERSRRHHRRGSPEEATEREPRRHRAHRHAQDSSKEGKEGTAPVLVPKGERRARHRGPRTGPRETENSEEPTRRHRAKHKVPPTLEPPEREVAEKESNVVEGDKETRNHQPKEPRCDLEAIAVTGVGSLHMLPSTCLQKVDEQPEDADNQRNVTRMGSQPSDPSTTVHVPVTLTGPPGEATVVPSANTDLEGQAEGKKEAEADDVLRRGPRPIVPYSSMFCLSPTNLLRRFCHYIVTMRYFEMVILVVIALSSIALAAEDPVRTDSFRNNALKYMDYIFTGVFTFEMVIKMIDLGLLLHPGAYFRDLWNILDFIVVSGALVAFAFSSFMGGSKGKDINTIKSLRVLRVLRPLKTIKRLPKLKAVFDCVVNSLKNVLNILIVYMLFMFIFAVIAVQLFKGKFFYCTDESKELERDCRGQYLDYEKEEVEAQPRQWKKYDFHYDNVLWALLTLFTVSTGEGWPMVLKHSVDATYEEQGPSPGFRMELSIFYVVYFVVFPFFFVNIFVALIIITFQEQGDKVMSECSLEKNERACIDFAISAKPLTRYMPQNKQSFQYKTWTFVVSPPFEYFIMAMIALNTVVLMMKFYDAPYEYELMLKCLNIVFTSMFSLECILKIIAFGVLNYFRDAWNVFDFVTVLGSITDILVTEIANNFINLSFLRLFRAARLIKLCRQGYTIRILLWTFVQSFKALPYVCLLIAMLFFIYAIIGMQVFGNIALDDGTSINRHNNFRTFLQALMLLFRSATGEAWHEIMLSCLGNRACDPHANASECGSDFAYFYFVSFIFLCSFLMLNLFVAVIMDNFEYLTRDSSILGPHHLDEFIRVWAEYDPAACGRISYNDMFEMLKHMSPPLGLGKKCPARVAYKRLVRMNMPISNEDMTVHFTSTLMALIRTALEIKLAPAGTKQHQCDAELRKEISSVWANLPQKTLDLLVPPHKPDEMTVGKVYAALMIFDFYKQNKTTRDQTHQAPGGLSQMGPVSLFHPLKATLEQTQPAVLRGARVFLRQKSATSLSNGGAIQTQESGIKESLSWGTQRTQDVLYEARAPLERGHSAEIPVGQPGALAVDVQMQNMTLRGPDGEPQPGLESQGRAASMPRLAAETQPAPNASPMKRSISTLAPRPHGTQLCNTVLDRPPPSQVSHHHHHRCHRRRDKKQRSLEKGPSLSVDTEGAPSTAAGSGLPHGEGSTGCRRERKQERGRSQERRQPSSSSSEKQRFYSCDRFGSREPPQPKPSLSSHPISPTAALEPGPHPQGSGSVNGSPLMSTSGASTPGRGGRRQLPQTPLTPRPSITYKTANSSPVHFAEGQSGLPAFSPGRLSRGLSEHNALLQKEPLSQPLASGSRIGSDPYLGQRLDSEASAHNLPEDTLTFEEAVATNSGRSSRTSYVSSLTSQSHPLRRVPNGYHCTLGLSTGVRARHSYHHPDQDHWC
T1 sequence (P54290 25-944 partner limits assumed): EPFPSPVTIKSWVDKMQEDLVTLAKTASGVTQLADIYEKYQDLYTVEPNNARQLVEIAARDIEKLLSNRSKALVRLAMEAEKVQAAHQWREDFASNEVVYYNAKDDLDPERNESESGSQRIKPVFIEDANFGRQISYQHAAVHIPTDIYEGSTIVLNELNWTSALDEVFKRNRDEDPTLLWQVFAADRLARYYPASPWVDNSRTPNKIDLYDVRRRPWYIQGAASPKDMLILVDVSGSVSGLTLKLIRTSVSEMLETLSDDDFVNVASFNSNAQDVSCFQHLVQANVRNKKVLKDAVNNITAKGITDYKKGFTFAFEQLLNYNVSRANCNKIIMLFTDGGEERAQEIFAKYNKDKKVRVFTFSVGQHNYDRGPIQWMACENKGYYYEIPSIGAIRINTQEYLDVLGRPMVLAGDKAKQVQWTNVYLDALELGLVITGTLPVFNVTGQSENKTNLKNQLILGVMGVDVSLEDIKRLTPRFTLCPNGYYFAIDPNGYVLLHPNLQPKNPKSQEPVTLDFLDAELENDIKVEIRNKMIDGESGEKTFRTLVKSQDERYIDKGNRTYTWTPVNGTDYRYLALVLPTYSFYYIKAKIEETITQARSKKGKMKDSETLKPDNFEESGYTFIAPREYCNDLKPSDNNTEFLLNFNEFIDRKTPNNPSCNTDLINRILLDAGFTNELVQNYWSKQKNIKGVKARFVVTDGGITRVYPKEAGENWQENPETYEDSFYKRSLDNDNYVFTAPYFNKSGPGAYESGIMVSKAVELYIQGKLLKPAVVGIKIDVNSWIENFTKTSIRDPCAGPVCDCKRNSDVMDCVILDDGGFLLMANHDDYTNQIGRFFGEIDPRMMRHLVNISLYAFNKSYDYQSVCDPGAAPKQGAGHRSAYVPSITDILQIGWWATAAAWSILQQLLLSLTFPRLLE
T1 sequence (P54290 945-1091 partner limits assumed): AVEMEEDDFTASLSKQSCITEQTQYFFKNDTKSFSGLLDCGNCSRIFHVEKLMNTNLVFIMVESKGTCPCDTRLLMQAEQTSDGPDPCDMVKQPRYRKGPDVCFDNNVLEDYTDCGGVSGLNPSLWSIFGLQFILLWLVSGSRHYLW
T1 sequence (P54283 whole entry partner): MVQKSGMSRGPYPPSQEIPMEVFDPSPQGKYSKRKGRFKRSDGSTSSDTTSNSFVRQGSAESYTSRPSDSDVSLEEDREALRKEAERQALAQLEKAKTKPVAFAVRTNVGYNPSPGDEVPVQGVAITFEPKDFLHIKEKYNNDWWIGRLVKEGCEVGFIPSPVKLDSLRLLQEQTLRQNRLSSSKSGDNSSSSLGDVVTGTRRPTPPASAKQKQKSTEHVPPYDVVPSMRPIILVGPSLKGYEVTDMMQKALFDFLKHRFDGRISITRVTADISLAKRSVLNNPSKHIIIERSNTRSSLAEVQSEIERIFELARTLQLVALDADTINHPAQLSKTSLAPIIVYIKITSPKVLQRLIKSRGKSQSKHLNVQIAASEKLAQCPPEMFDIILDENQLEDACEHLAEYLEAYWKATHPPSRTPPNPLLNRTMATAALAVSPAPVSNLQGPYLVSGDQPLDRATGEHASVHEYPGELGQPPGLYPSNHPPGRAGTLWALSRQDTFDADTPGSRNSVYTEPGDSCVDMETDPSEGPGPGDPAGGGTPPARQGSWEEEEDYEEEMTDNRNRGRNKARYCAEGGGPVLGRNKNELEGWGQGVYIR
Procedure: (§1) N-type calcium channel blocking activity was assayed in human embryonic kidney cells, HEK 293, stably transfected with the rat brain N-type calcium channel subunits (α1B+α2δ+β1b cDNA subunits). Alternatively, N-type calcium channels (α1B+α2δ+β1b cDNA subunits), L-type channels (α1C+α2δ+β1b cDNA subunits) and P/Q-type channels (α1A+α2δ+β1b cDNA subunits) were transiently expressed in HEK 293 cells. Briefly, cells were cultured in Dulbecco's modified eagle medium (DMEM) supplemented with 10% fetal bovine serum, 200 U/ml penicillin and 0.2 mg/ml streptomycin at 37° C. with 5% CO2. At 85% confluency cells were split with 0.25% trypsin/1 mM EDTA and plated at 10% confluency on glass coverslips. At 12 hours the medium was replaced and the cells transiently transfected using a standard calcium phosphate protocol and the appropriate calcium channel cDNAs. Fresh DMEM was supplied and the cells transferred to 28° C./5% CO2. Cells were incubated for 1 to 2 days to whole cell recording.
(§2) Whole cell patch clamp experiments were performed using an Axopatch 200B amplifier (Axon Instruments, Burlingame, Calif.) linked to a personal computer equipped with pCLAMP software. The external and internal recording solutions contained, respectively, 5 mM BaCl2, 1 mM MgCl2, 10 mM HEPES, 40 mM TEACl, 10 mM glucose, 87.5 mM CsCl (pH 7.2) and 108 mM CsMS, 4 mM MgCl2, 9 mM EGTA, 9 mM HEPES (pH 7.2). Currents were typically elicited from a holding potential of −80 mV to +10 mV using Clampex software (Axon Instruments). Typically, currents were first elicited with low frequency stimulation (0.03 Hz) and allowed to stabilize prior to application of the compounds. The compounds were then applied during the low frequency pulse trains for two to three minutes to assess tonic block, and subsequently the pulse frequency was increased to 0.2 Hz to assess frequency dependent block. Data were analyzed using Clampfit (Axon Instruments) and SigmaPlot 4.0 (Jandel Scientific).

[2] = biological target: P/Q-type channels (α1A+α2δ+β1b cDNA subunits) (UniProt P54282); test: Whole cell patch clamp, tonic and frequency dependent block, P/Q-type channels in HEK 293 (Example 5)
Procedure: as §1, §2
(§3) Tables 2 and 3 show the results of similar experiments conducted with P/Q-type and L-type channels expressed in HEK 293 cells.

[3] = system: P/Q-type channels (α1A+α2δ+β1b cDNA subunits); test: as above; conditions: in general
Procedure: as §1, §2, §3

[4] = biological target: T2, L-type channels (α1C+α2δ+β1b cDNA subunits) (UniProt P22002); test: Whole cell patch clamp, tonic and frequency dependent block, L-type channels in HEK 293 (Example 5)
T2 construct: other: α1C (L-type), 100 nM, 0.03 Hz; other: α1C (L-type), 100 nM, 0.2 Hz; other: α1C (L-type), 0.03 Hz; other: α1C (L-type), 0.2 Hz
Procedure: as §1, §2, §3

[5] = system: L-type channels (α1C+α2δ+β1b cDNA subunits); test: as above; conditions: in general
Procedure: as §1, §2, §3

[6] = Table 4 summary, 0.2 Hz, N-type, unit not given in Table 4 (μM in Table 1), read-out: N (IC50 values)
[7] = α1B (N-type), 0.03 Hz, read-out: Estimated IC50 (μM) 0.03 Hz
[8] = α1B (N-type), 0.2 Hz, read-out: Estimated IC50 (μM) 0.2 Hz
[9] = Table 4 summary, 0.2 Hz, P/Q-type, unit not given in Table 4 (μM in Table 2), read-out: P/Q (IC50 values)
[10] = α1A (P/Q-type), 0.03 Hz, read-out: Estimated IC50 (μM) 0.03 Hz
[11] = α1A (P/Q-type), 0.2 Hz, read-out: Estimated IC50 (μM) 0.2 Hz
[12] = Table 4 summary, 0.2 Hz, L-type, unit not given in Table 4 (μM in Table 3), read-out: L (IC50 values)
[13] = α1C (L-type), 0.03 Hz, read-out: Estimated IC50 (μM) 0.03 Hz
[14] = α1C (L-type), 0.2 Hz, read-out: Estimated IC50 (μM) 0.2 Hz

IC50 [1, 6]	% Block (100 nM) 0.03 Hz ([1]; α1B (N-type))	% Block (100 nM) 0.2 Hz ([1]; α1B (N-type))	IC50 [1, 7]	IC50 [1, 8]	IC50 [2, 9]	% Block (100 nM) 0.03 Hz ([2]; α1A (P/Q-type), 0.03 Hz)	% Block (100 nM) 0.2 Hz ([2]; α1A (P/Q-type), 0.2 Hz)	IC50 [2, 10]	IC50 [2, 11]	IC50 [4, 12]	% Block (100 nM) 0.03 Hz ([4]; α1C (L-type), 0.03 Hz)	% Block (100 nM) 0.2 Hz ([4]; α1C (L-type), 0.2 Hz)	IC50 [4, 13]	IC50 [4, 14]	Compound	N-type channel inhibition at higher frequencies (in words) ([1]; 0.2 Hz)	IC50 values on P/Q-type channels compared with N-type (in words) [3]	IC50 values on L-type channels compared with N-type (in words) [5]
0.06 µM	38%	63%	0.17 µM	0.06 µM	0.07 µM	28%	62%	0.3 µM	0.07 µM	0.3 µM	7%	15%	1.17 µM	0.3 µM	O=C(CCCCC(c1ccccc1)c1ccccc1)N1CCC(NCC2CCCCC2)CC1 [JM-G-10]	most potent inhibitors at higher frequencies	higher than those exhibited with respect to N-type channels	higher than those exhibited with respect to N-type channels
0.04 µM	34%	72%	0.2 µM	0.04 µM	0.12 µM	31%	52%	0.65 µM	0.12 µM	0.3 µM	19%	29%	0.5 µM	0.3 µM	O=C(CC(c1ccccc1)c1ccccc1)N1CCN(C(c2ccccc2)c2ccccc2)CC1 [39-1-B4]	most potent inhibitors at higher frequencies	higher than those exhibited with respect to N-type channels	higher than those exhibited with respect to N-type channels
0.03 µM	50%	79%	0.1 µM	0.03 µM	0.09 µM	27%	58%	0.41 µM	0.09 µM	0.37 µM	15%	26%	0.74 µM	0.37 µM	COc1cc(CN2CCN(CCCCCC(c3ccc(F)cc3)c3ccc(F)cc3)CC2)cc(OC)c1OC [39-45-3]	most potent inhibitors at higher frequencies	higher than those exhibited with respect to N-type channels	higher than those exhibited with respect to N-type channels
0.05 µM	47%	73%	0.12 µM	0.05 µM	0.08 µM	31%	56%	0.35 µM	0.08 µM	0.39 µM	14%	24%	0.63 µM	0.39 µM	O=C(CCCCC(c1ccccc1)c1ccccc1)N1CCN(C/C=C/c2ccccc2)CC1 [MC-34D]	most potent inhibitors at higher frequencies	higher than those exhibited with respect to N-type channels	higher than those exhibited with respect to N-type channels
